The text below walks through data of ChEMBL document CHEMBL1201862, “PubChem BioAssay data set” (2004).

The source made the active and inactive calls.

Experiment [1] concerns Vero. Nature of the experiment: cells. In kind it is functional, cell-based. The note with it: Chlorocebus sabaeus.
Another experiment has as its target T1, Coagulation factor XII (Homo sapiens, UniProt P00748).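 Note: activated factor XIIa alpha cleaving a fluorogenic AMC peptide substrate; inhibitor potency from loss of enzyme activity.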
T1 sequence (P00748 whole entry): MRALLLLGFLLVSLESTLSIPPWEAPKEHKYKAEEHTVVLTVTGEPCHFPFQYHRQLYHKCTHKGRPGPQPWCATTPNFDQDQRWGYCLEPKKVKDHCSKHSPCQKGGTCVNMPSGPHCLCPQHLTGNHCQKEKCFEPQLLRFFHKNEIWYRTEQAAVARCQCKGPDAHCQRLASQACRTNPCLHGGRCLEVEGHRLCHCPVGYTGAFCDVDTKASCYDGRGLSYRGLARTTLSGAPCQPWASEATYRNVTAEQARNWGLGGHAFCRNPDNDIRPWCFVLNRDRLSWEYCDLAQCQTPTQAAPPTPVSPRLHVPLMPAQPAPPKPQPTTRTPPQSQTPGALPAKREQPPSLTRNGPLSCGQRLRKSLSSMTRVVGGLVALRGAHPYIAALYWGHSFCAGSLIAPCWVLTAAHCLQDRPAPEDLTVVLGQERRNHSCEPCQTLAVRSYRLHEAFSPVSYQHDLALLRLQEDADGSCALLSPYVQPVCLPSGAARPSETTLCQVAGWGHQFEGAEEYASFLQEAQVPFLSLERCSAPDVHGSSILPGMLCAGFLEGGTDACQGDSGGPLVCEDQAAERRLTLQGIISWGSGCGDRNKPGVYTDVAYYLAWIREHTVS
In kind it is functional.

The target of experiment [2] is T2, Beta-galactosidase (Escherichia coli, UniProt Q8VNN2). Nature of the experiment: PubChem AID 485352. In kind it is functional.
T2 sequence (Q8VNN2 whole entry): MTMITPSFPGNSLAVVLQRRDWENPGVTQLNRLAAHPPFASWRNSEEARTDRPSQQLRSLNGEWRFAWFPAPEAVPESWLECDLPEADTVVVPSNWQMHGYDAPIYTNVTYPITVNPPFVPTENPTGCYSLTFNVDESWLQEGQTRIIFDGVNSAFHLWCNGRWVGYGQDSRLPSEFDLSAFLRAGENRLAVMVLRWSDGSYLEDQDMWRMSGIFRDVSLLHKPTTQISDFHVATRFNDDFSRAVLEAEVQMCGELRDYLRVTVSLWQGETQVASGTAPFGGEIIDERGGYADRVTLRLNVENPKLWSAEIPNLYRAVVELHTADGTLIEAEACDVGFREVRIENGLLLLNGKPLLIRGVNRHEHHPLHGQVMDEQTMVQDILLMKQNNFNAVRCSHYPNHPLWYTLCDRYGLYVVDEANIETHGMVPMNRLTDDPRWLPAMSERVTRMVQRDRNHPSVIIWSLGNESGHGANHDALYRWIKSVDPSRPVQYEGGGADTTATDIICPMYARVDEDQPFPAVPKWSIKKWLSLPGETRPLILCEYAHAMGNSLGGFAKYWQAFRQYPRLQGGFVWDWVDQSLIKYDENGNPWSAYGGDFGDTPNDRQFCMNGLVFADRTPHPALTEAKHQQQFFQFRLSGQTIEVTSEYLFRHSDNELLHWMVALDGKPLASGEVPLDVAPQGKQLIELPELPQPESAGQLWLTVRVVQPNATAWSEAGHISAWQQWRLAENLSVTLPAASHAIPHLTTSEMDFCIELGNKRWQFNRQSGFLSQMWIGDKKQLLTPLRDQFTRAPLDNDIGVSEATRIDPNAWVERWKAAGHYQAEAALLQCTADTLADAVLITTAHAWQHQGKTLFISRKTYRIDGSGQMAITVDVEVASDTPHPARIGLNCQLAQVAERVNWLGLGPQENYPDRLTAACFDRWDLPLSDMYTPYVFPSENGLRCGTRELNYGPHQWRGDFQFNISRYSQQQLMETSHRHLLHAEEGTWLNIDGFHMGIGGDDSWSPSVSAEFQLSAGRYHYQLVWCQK
Experiment [3] addresses T3, Type-1 angiotensin II receptor (Homo sapiens, UniProt P30556).
T3 sequence (P30556 whole entry): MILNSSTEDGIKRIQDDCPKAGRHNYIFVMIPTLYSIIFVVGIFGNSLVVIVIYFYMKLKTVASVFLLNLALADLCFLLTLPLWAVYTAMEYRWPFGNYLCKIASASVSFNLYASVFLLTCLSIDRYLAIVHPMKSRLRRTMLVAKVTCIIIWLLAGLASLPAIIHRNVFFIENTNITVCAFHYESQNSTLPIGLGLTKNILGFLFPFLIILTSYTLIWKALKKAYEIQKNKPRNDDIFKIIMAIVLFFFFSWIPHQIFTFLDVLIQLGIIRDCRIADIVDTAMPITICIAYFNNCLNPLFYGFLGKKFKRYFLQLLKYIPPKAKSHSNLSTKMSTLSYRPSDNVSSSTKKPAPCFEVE
Nature of the experiment: AT1 receptor antagonists, dose response, selectivity assay for APJ receptor antagonist project, cell-based, uHTS hits (AID 463214).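 Note: antagonist potency against angiotensin II stimulated AT1 response.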 Type of experiment: functional.

The nature of experiment [4]: inhibitors of clade B AD8 Env fusion, dose response, cell-based, cherry-pick (AID 652062).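 Note: luciferase signal from cell-cell fusion driven by HIV-1 clade B AD8 Env; potency is for inhibitors of fusion seen as a drop in luminescence.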 In kind it is functional.
Experiment [5] can be described thus: ZM109 Env clade C HIV-1 fusion inhibitors, dose response, HeLa effector, CEM target cells, luciferase, cherry-pick (AID 652058). Type of experiment: functional, cell-based.
A short description of experiment [6]: inhibitors of HIV Env-driven cell fusion, dose response, cherry-pick (AID 652057). Type of experiment: functional, cell-based.
Experiment [7] can be described thus: off-target signal loss in HeLa-CEM21 co-culture – HeLa F-luc CTL cells, cherry-picked, counter-screen for HIV-1 Env fusion inhibitor project, dose response (AID 652040).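 Note: potency for signal decrease marking cytotoxic or nonspecific inhibition.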 Type of experiment: functional, cell-based.
The nature of experiment [8]: HepG2 cell cytotoxicity, dose response, cytotoxicity control for Shn3 inhibitor project, CellTiter-Glo, cherry-picked (AID 624134). In kind it is functional, cell-based. Background: Cellular ATP, detected with luciferase, serves as a proxy for viable cell number.
Experiment [9] is described as follows: Shn3 3'UTR reporter inhibitors, dose response, cell-based, Clone20 osteoblasts, firefly luciferase, cherry-picked (AID 624132).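 Note: firefly luciferase luminescence from reporter carrying the Shn3 3'UTR in osteoblasts.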 In kind it is functional.
In experiment [10] the target is T2, Beta-galactosidase. Nature of the experiment: Dose response counterscreen for EBI2 assay utilizing the enzyme, b-galactosidase. Type of experiment: functional. (In general: The purpose of a counterscreen is to sort out artefacts and off-target activity.)
Experiment [11] in a line: control 3'UTR Renilla luciferase suppression, dose response, counter-screen for Shn3 inhibitor project, cell-based, Clone20-Shn3RL, cherry-picked (AID 624133). In kind it is functional.
Experiment [12] in a line: NIH-3T3 fibroblast cytotoxicity, dose response, cytotoxicity control, cell-based, fluorescence, Alamar Blue, secondary assay (AID 2327).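 Note: NIH-3T3 mouse fibroblasts cultured with fluconazole at 8 µg/mL.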 Type of experiment: functional.
The target of experiment [13] is T4, Polyadenylate-binding protein 1 (Homo sapiens, UniProt P11940). The experiment is described as follows: PABP1 MLLE–PAM2 binding inhibitor potency, dose response, biochemical, fluorescence polarization, FITC-PAM2 peptide (AID 602259). In kind it is functional. As to conditions: read-out: IC50_Mean. A general note: Polarisation of emitted light reports the rotation of a fluorescent probe.
T4 sequence (P11940 whole entry): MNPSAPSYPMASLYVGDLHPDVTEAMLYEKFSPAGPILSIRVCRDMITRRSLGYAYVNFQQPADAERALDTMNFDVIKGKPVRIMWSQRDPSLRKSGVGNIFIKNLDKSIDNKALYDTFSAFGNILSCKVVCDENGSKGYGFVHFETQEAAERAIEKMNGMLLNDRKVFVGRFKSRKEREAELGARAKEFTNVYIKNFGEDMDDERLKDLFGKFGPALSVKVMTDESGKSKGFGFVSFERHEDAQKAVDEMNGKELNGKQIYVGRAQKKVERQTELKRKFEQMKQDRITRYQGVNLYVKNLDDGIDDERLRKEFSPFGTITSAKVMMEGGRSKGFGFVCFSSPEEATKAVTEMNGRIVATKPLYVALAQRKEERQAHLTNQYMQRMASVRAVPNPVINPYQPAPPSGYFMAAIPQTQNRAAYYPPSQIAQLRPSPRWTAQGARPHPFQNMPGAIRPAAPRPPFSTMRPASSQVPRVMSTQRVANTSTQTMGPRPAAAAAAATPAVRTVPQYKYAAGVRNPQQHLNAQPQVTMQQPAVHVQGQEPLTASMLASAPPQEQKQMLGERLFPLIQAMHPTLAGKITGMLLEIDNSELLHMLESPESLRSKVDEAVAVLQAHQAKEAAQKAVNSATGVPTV

Experiment [14] can be described thus: C. albicans growth with fluconazole, confirmation, fluorescence, retest (AID 2467). Type of experiment: functional, cell-based.
In experiment [15] the target is T4, Polyadenylate-binding protein 1. The experiment is described as follows: PABP1 MLLE–PAM2 interaction inhibitors, dose response, miRNA deadenylation inhibitor project, biochemical, fluorescence polarization, Cy5-PAM2 peptide, secondary (AID 602260). In kind it is functional. As to conditions: read-out: IC50_Mean.
The target of the next experiment is Melanocortin receptor 4 (Homo sapiens, UniProt P32245). The experiment is described as follows: MC4R antagonist potency on cAMP, dose response, cell-based, TR-FRET, biased antagonists (AID 602298).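 Note: antagonist potency against agonist-stimulated cAMP production.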 Type of experiment: functional.
Chain of Melanocortin receptor 4 (P32245 whole entry): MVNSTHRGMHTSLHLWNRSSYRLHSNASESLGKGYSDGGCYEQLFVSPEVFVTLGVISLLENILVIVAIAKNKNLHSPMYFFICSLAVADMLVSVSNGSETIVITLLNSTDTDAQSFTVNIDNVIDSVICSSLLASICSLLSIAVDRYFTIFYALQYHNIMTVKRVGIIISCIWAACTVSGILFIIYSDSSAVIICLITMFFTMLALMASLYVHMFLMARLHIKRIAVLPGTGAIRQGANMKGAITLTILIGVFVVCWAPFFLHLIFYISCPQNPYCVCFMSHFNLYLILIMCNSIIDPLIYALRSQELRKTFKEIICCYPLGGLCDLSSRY
Experiment [16] is described as follows: nonselective inhibitors of cellular cAMP signaling, dose response, counter-screen for MC4R biased antagonist project, cell-based, TR-FRET cAMP detection (AID 602305).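 Note: U2OS cells stimulated with forskolin near its EC80 as the cAMP inducer; potency is for inhibition of forskolin-stimulated cAMP signaling.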 In kind it is functional.
Experiment [17] deals with Vero. The experiment is described as follows: cells. In kind it is functional. As to conditions: Chlorocebus sabaeus.
In the next experiment the target is T5, Streptokinase A (Streptococcus pyogenes serotype M1, UniProt P10520).
T5 sequence (P10520 whole entry): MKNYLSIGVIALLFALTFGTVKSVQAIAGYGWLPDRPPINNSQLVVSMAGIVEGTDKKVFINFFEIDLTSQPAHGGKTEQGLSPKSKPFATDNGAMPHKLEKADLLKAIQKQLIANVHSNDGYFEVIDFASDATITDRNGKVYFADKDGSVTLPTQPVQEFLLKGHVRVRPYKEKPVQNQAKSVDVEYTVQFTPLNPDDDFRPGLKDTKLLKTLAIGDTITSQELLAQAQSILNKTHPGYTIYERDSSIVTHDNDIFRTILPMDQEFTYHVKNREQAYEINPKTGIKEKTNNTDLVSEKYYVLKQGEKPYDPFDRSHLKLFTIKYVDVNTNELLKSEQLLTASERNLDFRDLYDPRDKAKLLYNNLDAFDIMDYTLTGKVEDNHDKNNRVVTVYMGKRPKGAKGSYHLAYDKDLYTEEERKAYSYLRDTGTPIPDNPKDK
The experiment is described as follows: S. pyogenes streptokinase expression inhibitors, potency, dose response, plasminogen activation absorbance, OD405 (AID 1914).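 Note: secreted streptokinase activity via plasminogen activation per viability signal from cell pellet.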 Type of experiment: functional, Streptococcus pyogenes M1 GAS.

Experiment [18] relates to Streptococcus sp. 'group A'. Nature of the experiment: growth inhibition of control SK(-) GAS strain, dose response, counter-screen for streptokinase expression inhibitor project, luminescence, kanamycin, BacTiterGlo, confirmation (AID 1900). In kind it is functional, organism-based.
For another experiment, the system named is Streptococcus. Nature of the experiment: Group A Streptococcus viability loss, dose response, counter-screen for streptokinase expression inhibitor project, luminescence, BacTiterGlo (AID 1915).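 Note: potency for reduction of bacterial viability or growth.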 In kind it is functional, organism-based.
Experiment [19] in a line: inhibitors of intracellular T. cruzi replication, confirmation, NIH3T3 host cells, beta-gal luminescence (AID 2044).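 Note: intracellular parasites grown in NIH/3T3 mouse fibroblasts as host cells; luminescent beta-galactosidase reporter signal from transgenic T. cruzi replicating inside host cells; inhibitors lower the luminescence signal.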 In kind it is functional, cell-based.
The nature of experiment [20]: cytotoxicity in HEK-293T cells, dose response, cytotoxicity control for BCR NF-kB inhibitor project, luminescence, B-cell screen hits (AID 489021).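 Note: HEK-293T cells carrying an NF-kB luciferase reporter; cells exposed to compound for about 14 hours before viability readout.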 In kind it is functional, cell-based.
Experiment [21] is described as follows: cells. Type of experiment: functional, cell-based.
A short description of experiment [22]: cells. In kind it is functional, cell-based. This is another data set of the same source.

As for `O=C1C2CCCN2C(c2ccccc2)N1c1ccc(Cl)cc1` (stereo unspecified), the IC50 with Vero [1] is > 25 µM (active).

As to `COc1cccc(NC(=O)Nc2cccnc2)c1`, the IC50 on Coagulation factor XII is > 50 µM (inactive).

By EC50 is commonly meant the midpoint of the concentration-response curve. For `Cc1ccc2c(c1)nnn2C1CCN(CC(=O)NCCc2nc3ccccc3[nH]2)CC1`, the EC50 at Beta-galactosidase [2] is > 40 µM (inactive). Besides, the IC50 in experiment [3] is listed as > 40 µM (not active).

For orientation: AC50 means the concentration at which the activity in the assay is half-maximal. On to `CCOc1ccc(OCc2cccc(C(=O)N3CCOCC3)c2)cc1`, for which the AC50 is 7.58 µM (active) in [4], 22 µM (active) in [5], 2.64 µM (active) in [6] and 5.29 µM (active) in experiment [7].

`CCOC(=O)c1c(O)c2cc(Cl)ccc2n(CC)c1=O`: the IC50 on Coagulation factor XII is > 50 µM (inactive).

With `Cc1nc2ccccc2c2oc(C(=O)N3CCN(C4CCCCC4)CC3)cc12`, the figures for the AC50 in experiment [8], in experiment [9] and in [11] were 68.8 µM (active), 7.02 µM (active) and 3.44 µM (active), respectively. Also, the IC50 on Beta-galactosidase [10] was > 80 µM (inactive).

`Cc1cc(OCC(=O)N(C)Cc2ccccc2)ccc1Br`: the IC50 on Beta-galactosidase [10] is > 80 µM (inactive).

In the case of `O=C(NNc1ccc(Cl)cc1)c1sccc1Cl`, the EC50 is > 40 µM (inactive) at Beta-galactosidase [2], 3.77 µM (active) in [12] and 2.04 µM (active) in [14]. In addition, the IC50 is > 66 µM (inactive) in [13], 12.4 µM (active) in [3] and > 66 µM (inactive) in experiment [15].

On to `COc1cccc(-c2noc(C3CCCN(S(=O)(=O)c4cccc(Cl)c4C)C3)n2)c1` (stereo unspecified), for which the AC50 in [4] is 11.9 µM (active); in experiment [5], 10.9 µM (active); in experiment [6], 6.22 µM (active); in [7], 16.5 µM (active).

With `COc1ccc(-n2cc(-c3ccc(Br)cc3)nc2S)cc1`, at Beta-galactosidase [10], the IC50 is > 80 µM (inactive).

Turning to `CCN1C(=O)/C(=C\c2ccco2)C(C(=O)OC)=C1C`, the IC50 at Coagulation factor XII was > 50 µM (inactive).

`O=S(=O)(c1ccc(F)cc1)N1CCN(c2nc(-c3cccnc3)nc3ccccc23)CC1`: the IC50 (at Melanocortin receptor 4; in [16]) was > 64.6 µM (inactive) throughout.

On to `COc1cc(C(=O)N2CCN(c3ncnc4sc(C)c(C)c34)CC2)cc(OC)c1OC`, for which the AC50 in experiment [4] was 8.4 µM (active); in experiment [5], 6.73 µM (active); in experiment [6] it was 33.7 µM (active); in [7], 24.4 µM (active).

For `O=C(/C=C/c1ccc([N+](=O)[O-])cc1)N1CCN(S(=O)(=O)c2ccccc2)CC1`, the IC50 at Beta-galactosidase [10] was > 80 µM (inactive).

In the case of `COc1ccccc1C1(CCNC(C)c2cccs2)CCOC(C(C)C)C1` (stereo unspecified), the IC50 at Melanocortin receptor 4 was 10.1 µM (inactive); in experiment [16], > 64.5 µM (inactive).

`CCOC(=O)C(C(=O)NCc1cccc(OC)c1)c1ncc(C(F)(F)F)cc1Cl` (stereo unspecified): the IC50 at Coagulation factor XII is > 50 µM (inactive).

For orientation: CC50 means the concentration at which the toxic effect on the cells reaches its halfway point. In the case of `CCOC(=O)c1c(SCCN2CCCCC2)n(-c2ccccc2)c(=S)n(-c2ccccc2)c1=O`, the IC50 in the experiment on Vero [1] is 20.1 µM (active). Moreover, in the experiment with Vero [17], the CC50 is > 25 µM (active).

Consider `Cc1ccc(OCC(=O)N2CCN(S(=O)(=O)c3ccc4c(c3)OCCO4)CC2)c(C)c1`, for which, at Beta-galactosidase [10], the IC50 is > 80 µM (inactive).

`C[C@@H]1CNC(=O)c2c(C(=O)N3CCN(c4ccccc4)CC3)ncn21`: the AC50 in experiment [4] is 19.7 µM (active); in [5] it was 14.8 µM (active); in experiment [6], 7.81 µM (active); in experiment [7], 10.4 µM (active).

As to `O=[N+]([O-])c1cccc(/C=N/NS(=O)(=O)c2ccccc2)c1`, at Beta-galactosidase [2], the EC50 is > 40 µM (inactive). The IC50 in experiment [3] is 24.3 µM (not active).

Regarding `Cc1ccc(Cn2cc(/C=N/NC(=O)Cc3nnc(NC(=O)c4ccc(C)cc4)s3)c3ccccc32)cc1`, the results for the EC50 (at Streptokinase A; in experiment [18]; in the experiment on Streptococcus) were > 150 µM (not active), 2.5 µM (active) and 36.9 µM (active), respectively. Also, the IC50 at Coagulation factor XII was > 50 µM (inactive).

Regarding `Cc1ccc(Nc2nc(N/N=C\c3ccc4c(c3)OCO4)nc(N3CCOCC3)n2)cc1`, the concentration for a half-maximal effect (EC50) is 0.393 µM (active) in [19], 111 µM (active) on Streptokinase A, 21.8 µM (active) in [18] and > 150 µM (not active) in the experiment with Streptococcus. Also, the IC50 in experiment [20] is 63.2 µM (inactive).

As to `COc1cc(/C=N/CC2OCCc3ccccc32)cc(OC)c1` (stereo unspecified), in “cells [21]”, the EC50 is > 29.9 µM (inactive). Moreover, the IC50 in the experiment “cells [22]” is > 29.9 µM (inactive).
